According to patent US20100249145A1, “Inhibitors of VEGF Receptor and HGF Receptor Signaling” (Methylgene, Inc., priority 2005, published 2010):

Tests used:
[1] = molecular target: T1, recombinant human c-Met/HGF receptor (Homo sapiens, UniProt P08581); experiment: In vitro receptor tyrosine kinase assay (DELFIA), c-Met/HGF receptor; format: biochemical; conditions: Table 31; ATP 10 uM, enzyme 25 nM; read-out: CMet ic50
T1 construct: His tag (histidine tag from pBlueBacHis2A); made in house; host or cells: Hi-5 cells (Trichoplusia ni), recombinant baculovirus

VEGF receptor KDR = molecular target: T2, VEGF receptor KDR (Homo sapiens, UniProt P35968); experiment: In vitro receptor tyrosine kinase assay (DELFIA), VEGF receptor KDR; format: biochemical; conditions: Table 31; ATP 0.6 uM, enzyme 5 nM; read-out: VEGFR IC50
T2 construct: made in house; host or cells: Sf9 cells (Spodoptera frugiperda), recombinant baculovirus
Source text: In Vitro Receptor Tyrosine Kinase Assays (c-Met/HGF receptor and VEGF Receptor KDR)
In the case of VEGF receptor KDR a 1.6-kb cDNA corresponding to the catalytic domain of VEGFR2 or KDR (Genbank accession number AF035121 amino acid 806 to 1356) was cloned into the Pst I site of the pDEST20 Gateway vector (Invitrogen) for the production of a GST-tagged version of that enzyme.
The GST-VEGFR2806-1356 protein was expressed in Sf9 cells (Spodoptera frugiperda) upon infection with recombinant baculovirus construct.
The supernatant was loaded onto a GST-agarose column (Sigma) equilibrated with PBS pH 7.3. Following a four column volume (CV) wash with PBS pH 7.3+1% Triton X-100 and 4 CV wash with buffer B (50 mM Tris pH 8.0, 20% glycerol and 100 mM NaCl), bound proteins were step eluted with 5 CV of buffer B supplemented with 5 mM DTT and 15 mM glutathion. […] Final GST-VEGFR2806-1356 protein preparations concentrations were about 0.7 mg/ml with purity approximating 70%.

A549 = A549 wound healing inhibition (HGF dependent migration); format: cell-based; conditions: Homo sapiens, Table 31, read-out: A549 wound healing inbib IC50
Source text: (§1) HGF has well known activity in terms of inducing scattering and migration (wound healing) (Wells et al., Cell Motil Cytoskeleton. 2005 November 62(3):180-94; Miura et al., Urology 2001 December 58(6):1064-9; Nishimura et al., Int J. Urol. 1998 May 5(3):276-81; Wang et al., Mol Cancer Ther. 2003 November; 2(11):1085-92; and Christensen et al., Cancer Res. 2003 Nov. 1; 63(21):7345-55).

DU145 = DU145 scattering inhibition (HGF dependent scattering); format: cell-based; conditions: Homo sapiens, DU-145, Table 31, read-out: DU145 scattering inhib IC50
Source text: as §1

T1 sequence (P08581 1078-1337): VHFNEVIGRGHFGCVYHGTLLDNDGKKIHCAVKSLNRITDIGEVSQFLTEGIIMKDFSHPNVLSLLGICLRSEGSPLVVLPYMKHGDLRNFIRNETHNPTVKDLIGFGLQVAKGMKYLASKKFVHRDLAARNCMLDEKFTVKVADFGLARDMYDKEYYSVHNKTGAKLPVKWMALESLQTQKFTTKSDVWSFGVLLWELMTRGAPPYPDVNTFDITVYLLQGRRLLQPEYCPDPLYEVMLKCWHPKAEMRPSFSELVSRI
T2 sequence (P35968 806-1356): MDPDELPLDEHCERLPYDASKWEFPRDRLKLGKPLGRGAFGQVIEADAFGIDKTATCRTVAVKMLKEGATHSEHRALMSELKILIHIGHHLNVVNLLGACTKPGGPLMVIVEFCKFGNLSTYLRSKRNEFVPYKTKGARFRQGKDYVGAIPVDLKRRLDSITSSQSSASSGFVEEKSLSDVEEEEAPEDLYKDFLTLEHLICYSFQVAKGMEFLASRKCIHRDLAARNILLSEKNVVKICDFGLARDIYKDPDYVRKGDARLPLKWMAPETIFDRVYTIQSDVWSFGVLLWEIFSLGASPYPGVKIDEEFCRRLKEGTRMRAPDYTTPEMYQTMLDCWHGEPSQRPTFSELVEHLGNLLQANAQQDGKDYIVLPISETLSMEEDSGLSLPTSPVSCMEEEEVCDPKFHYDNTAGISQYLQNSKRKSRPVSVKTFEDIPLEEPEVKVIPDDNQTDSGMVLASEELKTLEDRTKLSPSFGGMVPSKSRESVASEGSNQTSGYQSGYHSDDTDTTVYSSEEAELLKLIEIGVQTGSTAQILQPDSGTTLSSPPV

Structure (SMILES) | IC50 [1] [nM] | IC50 (VEGF receptor KDR) [nM] | IC50 (A549) [nM] | IC50 (DU145) [nM]
CC(C(=O)NC(=S)Nc1ccc(Oc2ccnc3cc(-c4nccn4C)sc23)c(F)c1)c1ccccc1 (stereo not shown) | 50 to 250 | 50 to 250 | < 1000 | < 1000
CN(c1ccc(NC(=S)NC(=O)Cc2ccccc2)cc1F)c1ccnc2ccsc12 | 250 to 500 | > 500 | 5000 to 10000 | 5000 to 10000
O=C(Cc1ccccc1)NC(=S)Nc1ccc(Nc2ccnc3ccsc23)c(F)c1 | 50 to 250 | > 500 | < 1000 | 1000 to 5000
COc1cccc(Nc2cc3nccc(Oc4ccc(NC(=S)NC(=O)Cc5ccccc5OC)cc4F)c3s2)c1 | 50 to 250 | > 500 | 1000 to 5000 | 1000 to 5000
CCn1cnc(-c2cc3nccc(Oc4ccc(NC(=S)NC(=O)Cc5ccc(F)cc5F)cc4F)c3s2)c1 | < 50 | < 50 | 1000 to 5000 | < 1000
C#Cc1cc(F)ccc1CC(=O)NC(=S)Nc1ccc(Oc2ccnc3cc(-c4ccc(CN5CCN(C)CC5)cc4)sc23)c(F)c1 | < 50 | < 50 | 1000 to 5000 | < 1000
C#Cc1cc(F)ccc1CC(=O)NC(=S)Nc1ccc(Oc2ccnc3cc(-c4cn(CCN5CCCC5)cn4)sc23)c(F)c1 | < 50 | < 50 | < 1000 | < 1000
COCCNCc1ccc(-c2cc3nccc(Oc4ccc(NC(=S)NC(=O)Cc5ccc(F)cc5)cc4F)c3s2)cc1 | < 50 | < 50 | < 1000 | < 1000
C#Cc1cc(F)ccc1CC(=O)NC(=S)Nc1ccc(Oc2ccnc3cc(C4=CCN(C)CC4)sc23)c(F)c1 | < 50 | 50 to 250 | < 1000 | < 1000
CCn1cc(-c2cc3nccc(Oc4ccc(NC(=S)NC(=O)Cc5ccccc5)cc4F)c3s2)nn1 | < 50 | 250 to 500 | < 1000 | < 1000
C#Cc1cccc(F)c1CC(=O)NC(=S)Nc1ccc(Oc2ccnc3cc(-c4cn(C)cn4)sc23)c(F)c1 | < 50 | < 50 | < 1000 | < 1000
C#Cc1ccccc1CC(=O)NC(=S)Nc1ccc(Oc2ccnc3cc(-c4ccc(CNCCOC)cn4)sc23)c(F)c1 | < 50 | < 50 | < 1000 | < 1000
C#Cc1ccccc1CC(=O)NC(=S)Nc1ccc(Oc2ccnc3cc(-c4cccc[n+]4[O-])sc23)c(F)c1 | < 50 | < 50 | < 1000 | < 1000
O=C(Cc1ccc(F)cc1)NC(=S)Nc1ccc(Oc2ccnc3cc(-c4cccc[n+]4[O-])sc23)c(F)c1 | < 50 | < 50 | < 1000 | < 1000
O=C(Cc1ccc(F)cc1)NC(=S)Nc1ccc(Oc2ccnc3cc(-c4cc[n+]([O-])cc4)sc23)c(F)c1 | < 50 | 50 to 250 | < 1000 | < 1000
C#Cc1cc(F)ccc1CC(=O)NC(=S)Nc1ccc(Oc2ccnc3cc(-c4cccc[n+]4[O-])sc23)c(F)c1 | < 50 | < 50 | < 1000 | < 1000
C=C(F)c1ccccc1CC(=O)NC(=S)Nc1ccc(Oc2ccnc3cc(-c4cn(C)cn4)sc23)c(F)c1 | < 50 | < 50 | < 1000 | < 1000
C=C(F)c1cccc(CC(=O)NC(=S)Nc2ccc(Oc3ccnc4cc(-c5cn(C)cn5)sc34)c(F)c2)c1 | 50 to 250 | 50 to 250 | 1000 to 5000 | 1000 to 5000
CC(=O)N1CC=C(c2cc3nccc(Oc4ccc(NC(=S)NC(=O)Cc5ccc(F)cc5)cc4F)c3s2)CC1 | < 50 | < 50 | < 1000 | < 1000
CCN(CCOC)Cc1ccc(-c2cc3nccc(Oc4ccc(NC(=S)NC(=O)Cc5ccc(F)cc5)cc4F)c3s2)cc1 | < 50 | < 50 | < 1000 | < 1000
CS(=O)(=O)c1ccc(-c2cc3nccc(Oc4ccc(NC(=S)NC(=O)Cc5ccc(F)cc5)cc4F)c3s2)cc1 | < 50 | 50 to 250 | < 1000 | < 1000
CN(C)C(=O)c1ccc(-c2cc3nccc(Oc4ccc(NC(=S)NC(=O)Cc5ccc(F)cc5)cc4F)c3s2)cc1 | < 50 | < 50 | < 1000 | < 1000
COCCNCc1cccc(-c2cc3nccc(Oc4ccc(NC(=S)NC(=O)Cc5ccc(F)cc5)cc4F)c3s2)n1 | < 50 | 250 to 500 | < 1000 | < 1000
COCCNCc1ccc(-c2cc3nccc(Oc4ccc(NC(=O)NC(=O)Cc5ccc(F)cc5)cc4F)c3s2)cc1 | < 50 | 50 to 250 | < 1000 | < 1000

Next, values leading:

IC50 [1] [nM] | IC50 (VEGF receptor KDR) [nM] | IC50 (A549) [nM] | IC50 (DU145) [nM] | Structure (SMILES)
< 50 | 50 to 250 | 1000 to 5000 | 1000 to 5000 | CO/N=C(\C)c1cc2nccc(Oc3ccc(NC(=S)NC(=O)Cc4ccccc4)cc3F)c2s1
< 50 | > 500 | < 1000 | < 1000 | CN(c1ccc(NC(=S)NC(=O)Cc2ccccc2)cc1F)c1ccnc2cc(-c3nccn3C)sc12
< 50 | > 500 | < 1000 | < 1000 | Cn1cnc(-c2cc3nccc(Nc4ccc(NC(=S)NC(=O)Cc5ccccc5)cc4F)c3s2)c1
< 50 | < 50 | < 1000 | < 1000 | CN1CCN(CCN(C)Cc2ccc(-c3cc4nccc(Oc5ccc(NC(=S)NC(=O)Cc6ccccc6)cc5F)c4s3)cc2)CC1
< 50 | > 500 | < 1000 | < 1000 | CN(c1ccc(NC(=S)NC(=O)Cc2ccccc2)cc1F)c1ccnc2cc(-c3cn(C)cn3)sc12
< 50 | < 50 | < 1000 | < 1000 | CN1CCN(Cc2ccc(-c3cc4nccc(Oc5ccc(NC(=S)NC(=O)Cc6ccccc6)cc5F)c4s3)nc2)CC1
< 50 | < 50 | 5000 to 10000 | < 1000 | O=C(Cc1ccccc1)NC(=S)Nc1ccc(Oc2ccnc3cc(-c4cn(CCN5CCCC5)cn4)sc23)c(F)c1
< 50 | < 50 | < 1000 | < 1000 | CN(CCO)Cc1ccc(-c2cc3nccc(Oc4ccc(NC(=S)NC(=O)Cc5ccccc5)cc4F)c3s2)cc1
< 50 | < 50 | < 1000 | < 1000 | CN1CCN(Cc2ccc(-c3cc4nccc(Oc5ccc(NC(=S)NC(=O)Cc6ccccc6)cc5F)c4s3)cc2)CC1
< 50 | > 500 | < 1000 | < 1000 | Cn1ccnc1-c1cc2nccc(Sc3ccc(NC(=S)NC(=O)Cc4ccccc4)cc3)c2s1
< 50 | 250 to 500 | < 1000 | < 1000 | CN1CC=C(c2cc3nccc(Oc4ccc(NC(=S)NC(=O)Cc5ccccc5)cc4F)c3s2)CC1
< 50 | < 50 | 1000 to 5000 | < 1000 | O=C(Cc1ccccc1)NC(=S)Nc1ccc(Oc2ccnc3cc(-c4ccc(CN5CCNCC5)cc4)sc23)c(F)c1
< 50 | < 50 | < 1000 | < 1000 | CCNC(=O)N1CCN(Cc2ccc(-c3cc4nccc(Oc5ccc(NC(=S)NC(=O)Cc6ccccc6)cc5F)c4s3)cc2)CC1
